These results are taken from patent US8106225B2, “Methods of preparing substituted tetracyclines with transition metal-based chemistries” (Trustees of Tufts College, priority 1999, dated 2012).

Holding throughout (assay): Antibacterial activity in vitro, MIC by broth dilution
What all share (format): cell-based

The test system of experiment [1] is E. coli D 31m4 pHCM1 Tc^r. Conditions: E. coli D 31m4 pHCM1, tetracycline resistant, 18 hrs. On the procedure:
(§1) Various compounds made in accordance with the invention were evaluated for anti-bacterial activity in vitro as follows. The minimum inhibitory concentration, the lowest concentration of drug that inhibits bacterial growth at 18 hrs at their appropriate temperature, is determined by the broth dilution method using L-broth or Mueller-Hinton broth. The Mueller-Hinton broth was cation-adjusted accordingly and all bacteriological methods were performed as was described by Waitz, J. A., National Commission for Clinical Laboratory Standards Document M7-A2, vol. 10, no. 8, pp. 13-20, 2nd edition, Villanova, Pa. (1990). The organisms tested represent gram-positive and gram-negative bacterial species that are susceptible to tetracyclines or are resistant to tetracyclines due to the ability to efflux tetracyclines or which confer resistance by ribosomal protection mechanisms. The clinical strains used are either susceptible to tetracyclines or are resistant to them by either drug efflux or ribosomal protection.

The test system of experiment [2] is E. coli D31m4 Tc^s. Conditions: E. coli D31m4, tetracycline susceptible, 18 hrs. On the procedure: as §1
Experiment [3] concerns E. hirae 9790 with pAM211 Tc^r. Particulars: E. hirae 9790 with pAM211, tetracycline resistant, 18 hrs. Here is the method: as §1
Experiment [4] has as its system E. hirae 9790 with pMV158 Tc^r. Conditions: E. hirae 9790 with pMV158, tetracycline resistant, 18 hrs. On the procedure: as §1
Experiment [5] has as its system S. aureus RN4250 Tc^r. Particulars: S. aureus RN4250, tetracycline resistant, 18 hrs. Here is the method:
as §1

In experiment [6] the test system is S. aureus RN450 Tc^s. Conditions: S. aureus RN450, tetracycline susceptible, 18 hrs. Here is the method:
as §1

In experiment [7] the test system is E. coli D1-209 Tc^r. Also noted: unit not given here. Particulars: E. coli D1-209, tetracycline resistant, 18 hrs. Here is the method: as §1
The test system of experiment [8] is E. coli D1-299 Tc^r. Also noted: unit not given here. Particulars: E. coli D1-299, tetracycline resistant, 18 hrs. Here is the method: as §1
Experiment [9] deals with E. coli ML308-225 Tc^s. Also noted: unit not given here. Conditions: E. coli ML308-225, tetracycline susceptible, 18 hrs. On the procedure:
as §1

Experiment [10] has as its system E. hirae ATCC9790 Tc^s. Also noted: unit not given here. Particulars: E. hirae ATCC9790, tetracycline susceptible, 18 hrs. Here is the method:
as §1

Experiment [11] relates to S. aureus MRSA5 Tc^r. Details: unit not given here. Conditions: S. aureus MRSA5, tetracycline resistant, 18 hrs. Here is the method:
as §1

Experiment [12] concerns S. warnerii Tc^r ATCC12715. Also noted: unit not given here. Particulars: S. warnerii ATCC12715, tetracycline resistant, 18 hrs. On the procedure:
as §1

With `CC1c2ccc(/C=C/C(=O)O)c(O)c2C(=O)C2=C(O)C3(O)C(=O)C(C(N)=O)=C(O)[C@@H](N(C)C)C3C(O)C21` (stereo partly drawn) [D, [4S-(4a,12aα)]-9-[3′-(E)-propenoic acid]-4-(dimethylamino)-1,4,4a,5,5a,6,11,12a-octahydro-3,5,10,12,12a-pentahydroxy-6-methyl-1,11-dioxo-2-naphthacenecarboxamide], the “Antibacterial Activity (minimum inhibitory concentration)” value in experiment [1] is on record as above 50; in experiment [2], above 50; in experiment [3], above 50; in experiment [4], 12.5; in experiment [5] it was above 50; in experiment [6], 3.12. The “Antibacterial Activity (minimum inhibitory concentration)” value in experiment [7] is above 50; in [8], above 50; in [9], 25; in [10] it was 3.12; in experiment [11], above 50; in experiment [12], above 50.
